pEC50: −log10 of the molar value.
Assays:
[1] = molecular target: T1, F508delCFTR (Homo sapiens, UniProt P13569, DEL508-508); assay: Cell Surface Expression-Horse Radish Peroxidase (CSE-HRP) assay, test compound without co-corrector; format: cell-based; details: for pEC50: test compound without co-corrector;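 as to Maximum % activity (without co-corrector): percent of on-plate 2 µM positive control corrector response over DMSO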
T1 construct: expressed in transfected cells; host or cells: CFBE41o- human lung-derived epithelial cells (CFBE41o-F508delCFTR-HRP), doxycycline-inducible
T1 sequence (P13569 with tags, fused parts or gaps DEL508-508): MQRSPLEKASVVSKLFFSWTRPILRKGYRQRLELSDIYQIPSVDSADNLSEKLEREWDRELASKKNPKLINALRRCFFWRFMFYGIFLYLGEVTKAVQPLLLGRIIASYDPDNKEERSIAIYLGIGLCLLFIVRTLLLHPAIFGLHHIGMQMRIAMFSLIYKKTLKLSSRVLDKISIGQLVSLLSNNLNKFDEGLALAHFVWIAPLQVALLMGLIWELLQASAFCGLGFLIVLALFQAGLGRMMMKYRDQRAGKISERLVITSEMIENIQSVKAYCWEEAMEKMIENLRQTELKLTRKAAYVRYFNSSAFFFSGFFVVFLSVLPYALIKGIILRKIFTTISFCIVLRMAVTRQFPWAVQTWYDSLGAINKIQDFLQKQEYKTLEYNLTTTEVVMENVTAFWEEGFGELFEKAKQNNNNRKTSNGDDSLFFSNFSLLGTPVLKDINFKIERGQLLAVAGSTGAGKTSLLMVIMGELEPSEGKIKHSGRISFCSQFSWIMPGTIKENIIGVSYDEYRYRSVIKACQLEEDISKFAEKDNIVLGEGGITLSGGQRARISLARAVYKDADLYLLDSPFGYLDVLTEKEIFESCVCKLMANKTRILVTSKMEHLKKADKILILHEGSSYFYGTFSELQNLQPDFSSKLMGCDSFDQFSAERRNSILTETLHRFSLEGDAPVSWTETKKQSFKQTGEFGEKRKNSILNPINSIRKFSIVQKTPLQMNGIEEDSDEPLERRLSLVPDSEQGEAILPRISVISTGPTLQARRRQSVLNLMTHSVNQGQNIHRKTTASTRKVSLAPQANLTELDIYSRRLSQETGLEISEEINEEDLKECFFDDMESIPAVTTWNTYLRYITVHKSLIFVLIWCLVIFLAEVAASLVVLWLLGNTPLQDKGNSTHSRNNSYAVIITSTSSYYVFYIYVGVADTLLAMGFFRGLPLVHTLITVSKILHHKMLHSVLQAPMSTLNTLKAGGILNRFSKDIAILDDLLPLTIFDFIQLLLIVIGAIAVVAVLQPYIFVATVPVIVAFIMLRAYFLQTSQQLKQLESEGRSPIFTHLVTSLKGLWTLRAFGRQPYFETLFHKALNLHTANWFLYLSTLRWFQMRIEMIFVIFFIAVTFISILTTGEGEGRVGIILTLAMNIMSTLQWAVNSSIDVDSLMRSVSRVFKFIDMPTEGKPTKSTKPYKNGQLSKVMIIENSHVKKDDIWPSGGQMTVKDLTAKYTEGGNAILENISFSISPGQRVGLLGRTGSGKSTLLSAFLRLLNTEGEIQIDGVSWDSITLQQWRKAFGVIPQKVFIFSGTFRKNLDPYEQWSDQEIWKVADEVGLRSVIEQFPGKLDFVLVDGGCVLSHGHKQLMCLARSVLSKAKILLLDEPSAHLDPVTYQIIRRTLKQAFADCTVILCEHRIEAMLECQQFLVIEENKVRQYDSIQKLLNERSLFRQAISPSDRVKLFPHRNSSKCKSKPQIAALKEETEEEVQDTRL
Experimental: (§1) Cell Surface Expression-Horse Radish Peroxidase (CSE-HRP) Assay
(§2) A cellular assay for measuring the F508delCFTR cell surface expression after correction with test compounds either without or with a co-corrector (2 μM of 3-[(2R,4R)-4-({[1-(2,2-difluoro-1,3-benzodioxol-5-yl)cyclopropyl]carbonyl}amino)-7-methoxy-3,4-dihydro-2H-chromen-2-yl]benzoic acid), was developed in human lung derived epithelial cell line (CFBE41o-) (Veit G et al, (2012) Mol Biol Cell. 23(21): 4188-4202). The development was achieved by expressing the F508delCFTR mutation along with a horseradish peroxidase (HRP) in the fourth exofacial loop, and then measuring the HRP activity using luminescence readout from these cells, CFBE41o-F508delCFTR-HRP, that were incubated overnight with the test corrector compounds, either without or with the co-corrector. For this primary assay, the CFBE41o-F508delCFTR-HRP cells were plated in 384-well plates (Greiner Bio-one; Cat 781080) at 4,000 cells/well along with 0.5 μg/mL doxycycline to induce the F508delCFTR-HRP expression and further incubated at 37° C., 5% CO2 for 72 hours. The test compounds were then added either without or with a co-corrector at the required concentrations and further incubated for 18-24 hours at 33° C. The highest concentration tested was 20 μM with an 8-point concentration response curve using a 3-fold dilution in both the test compound without or with the co-corrector. Three replicate plates were run to determine one EC50. All plates contained negative controls (dimethyl sulfoxide, DMSO) and positive control (2 μM of 3-[(2R,4R)-4-({[1-(2,2-difluoro-1,3-benzodioxol-5-yl)cyclopropyl]carbonyl}amino)-7-methoxy-3,4-dihydro-2H-chromen-2-yl]benzoic acid) as well as on-plate concentration response of the positive control. Post incubation, the plates were washed 5× times with Dulbecco's phosphate buffered saline (DPBS), followed by the addition of the HRP substrate, luminol (50 μL), and measuring the HRP activity using luminescence readout on EnVision® Multilabel Plate Reader (Perkin Elmer; product number 2104-0010). The raw counts from the experiment were analyzed using Accelrys® Assay Explorer v3.3.
(§3) Z′ greater than 0.5 was used as passing quality control criteria for the plates.
(§4) 1−[3*SDPositive Control+3*SDNegative Control/Absolute (MeanPositive Control−MeanNegative Control)]
(§5) wherein “SD” is standard deviation.
(§6) The % activity measured at each of the 8 test concentrations of the test compound added either without or with a co-corrector (2 μM of 3-[(2R,4R)-4-({[1-(2,2-difluoro-1,3-benzodioxol-5-yl)cyclopropyl]carbonyl}amino)-7-methoxy-3,4-dihydro-2H-chromen-2-yl]benzoic acid) was normalized to the on-plate positive control using the following formulae:
% activity (Test compound without co-corrector)=[(test compound without co-corrector response−DMSO response)/(positive control response−DMSO response)]*100%
(§7) The maximum % activity achieved for the test compound either without or with a co-corrector at any tested concentration is presented in Table 1 along with the respective EC50's calculated using the following general sigmoidal curve with variable Hill slope equation (described as Model 42 in the Accelrys® Assay Explorer v3.3 software):
(§8) General sigmoidal curve with concentration, response, top, bottom, EC50 and Hill slope. This model describes a sigmoidal curve with an adjustable baseline, a. The equation can be used to fit curves where response is either increasing or decreasing with respect to the independent variable, “x”.
“x” is a concentration of drug under test. “y” is the response. “a” is the maximum response, and “d” is the minimum response “c” is the inflection point (EC50) for the curve. That is, “y” is halfway between the lower and upper asymptotes when x=c. “b” is the slope-factor or Hill coefficient. The sign of b is positive when the response increases with increasing dose and is negative when the response decreases with increasing dose (inhibition). The data is presented with the qualifiers shown below: […]

[2] = molecular target: T1, F508delCFTR; assay: Cell Surface Expression-Horse Radish Peroxidase (CSE-HRP) assay, test compound with co-corrector; format: cell-based; details: with 2 μM co-corrector; for Maximum % activity (with co-corrector): maximum at any tested concentration, normalized to positive control;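 as to Maximum % activity (with co-corrector): percent of 2 µM positive control corrector over DMSO; co-corrector is that same compound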
Experimental: as §1, §2, §3, §4, §5, §6
activity (Test compound with co-corrector)=[(test compound with co-corrector response−DMSO response)/(positive control response−DMSO response)]*100
as §7, §8
“x” is a concentration of drug under test. “y” is the response. “a” is the maximum response, and “d” is the minimum response “c” is the inflection point (EC50) for the curve. That is, “y” is halfway between the lower and upper asymptotes when x=c. “b” is the slope-factor or Hill coefficient. The sign of b is positive when the response increases with increasing dose and is negative when the response decreases with increasing dose (inhibition).

[3] = maximum at any tested concentration, normalized to positive control, without co-corrector

Compound | Maximum % activity (without co-corrector) [1, 3] | pEC50 [1] | Maximum % activity (with co-corrector) [2] | pEC50 [2] | Emax [1, 3] [%]
2-cyclobutyl-5-methoxy-N-(1-methyl-1H-benzimidazole-7-sulfonyl)bicyclo[4.2.0]octa-1,3,5-triene-7-carboxamide [Example I-134] | +++ (≥150) | > 5.52 | +++ (≥350) | > 5.52 | –
COc1ccc(Br)c2c1[C@@H](C(=O)NS(=O)(=O)c1cccc3ncccc13)CCC2 (single isomer, unassigned) [Example I-62] | – | 5.00 to 5.52 | +++ (≥350) | > 5.52 | ≥ 150
COc1ccc(Br)c2c1[C@H](C(=O)NS(=O)(=O)c1cccc3ncccc13)CCC2 (single isomer, unassigned) [Example I-63] | – | > 5.52 | +++ (≥350) | > 5.52 | ≥ 150
COc1ccc(Cl)c2c1CC[C@H]2C(=O)NS(=O)(=O)c1cccc2ccccc12 (single isomer, unassigned) [Example I-86] | – | 5.00 to 5.52 | +++ (≥350) | > 5.52 | ≥ 150
COc1ccc(Cl)c2c1CC[C@@H]2C(=O)NS(=O)(=O)c1cccc2ccccc12 (single isomer, unassigned) [Example I-87] | – | 5.00 to 5.52 | +++ (≥350) | 5.00 to 5.52 | 50 to 150
COc1ccc(C2CCC2)c2c1[C@@H](C(=O)NS(=O)(=O)c1cccc3ccccc13)C2 (single isomer, unassigned) [Example I-106] | – | 5.00 to 5.52 | +++ (≥350) | > 5.52 | ≥ 150
COc1ccc(C2CCC2)c2c1[C@H](C(=O)NS(=O)(=O)c1cccc3ccccc13)C2 (single isomer, unassigned) [Example I-107] | – | > 5.52 | +++ (≥350) | > 5.52 | ≥ 150
COc1ccc(C2CCC2)c2c1[C@@H](C(=O)NS(=O)(=O)c1cccc3cnn(C)c13)CC2 (single isomer, unassigned) [Example I-141] | – | 5.00 to 5.52 | +++ (≥350) | > 5.52 | ≥ 150
COc1ccc(C2CCC2)c2c1[C@H](C(=O)NS(=O)(=O)c1cccc3cnn(C)c13)CC2 (single isomer, unassigned) [Example I-142] | – | > 5.52 | +++ (≥350) | > 5.52 | ≥ 150
COc1ccc(C2CCC2)c2c1[C@@H](C(=O)NS(=O)(=O)c1cccc3cnn(C)c13)C2 (single isomer, unassigned) [Example I-143] | – | 5.00 to 5.52 | +++ (≥350) | > 5.52 | 50 to 150
COc1ccc(C2CCC2)c2c1[C@@H](C(=O)NS(=O)(=O)c1cccc3c1CCCN3)C2 (single isomer, unassigned) [Example I-145] | – | 5.00 to 5.52 | +++ (≥350) | 5.00 to 5.52 | ≥ 150
COc1ccc(C2CCC2)c2c1[C@@H](C(=O)NS(=O)(=O)c1cccc3ncccc13)C2 (single isomer, unassigned) [Example I-147] | – | 5.00 to 5.52 | +++ (≥350) | > 5.52 | ≥ 150
COc1ccc(C2CCC2)c2c1[C@H](C(=O)NS(=O)(=O)c1cccc3ncccc13)C2 (single isomer, unassigned) [Example I-148] | – | > 5.52 | +++ (≥350) | > 5.52 | ≥ 150
Cc1ccccc1S(=O)(=O)NC(=O)[C@H]1CCc2c(Cl)cccc21 (single isomer, unassigned) [II-29] | – | 5.00 to 5.52 | ++ (≥150 and <350) | > 5.52 | 50 to 150
COc1cccc2c1CCC2C(=O)NS(=O)(=O)c1cccc2ccccc12 (stereo not drawn) [Example I-1, 4-methoxy-N-(naphthalene-1-sulfonyl)-2,3-dihydro-1H-indene-1-carboxamide] | – | 5.00 to 5.52 | +++ (≥350) | 5.00 to 5.52 | ≥ 150
O=C(NS(=O)(=O)c1cccc2ccccc12)C1CCCc2cccc(Cl)c21 (stereo not drawn) [Example I-2, 8-chloro-N-(naphthalene-1-sulfonyl)-1,2,3,4-tetrahydronaphthalene-1-carboxamide] | – | 5.00 to 5.52 | +++ (≥350) | > 5.52 | ≥ 150
COc1cccc2c1CCC[C@H]2C(=O)NS(=O)(=O)c1cccc2ccccc12 [Example I-3, (1R)-5-methoxy-N-(naphthalene-1-sulfonyl)-1,2,3,4-tetrahydronaphthalene-1-carboxamide] | – | 5.00 to 5.52 | +++ (≥350) | 5.00 to 5.52 | ≥ 150
COc1cccc2c1CCCC2C(=O)NS(=O)(=O)c1cccc2ccccc12 (stereo not drawn) [Example I-4, 5-methoxy-N-(naphthalene-1-sulfonyl)-1,2,3,4-tetrahydronaphthalene-1-carboxamide] | – | 5.00 to 5.52 | +++ (≥350) | 5.00 to 5.52 | ≥ 150
O=C(NS(=O)(=O)c1cccc2ccccc12)C1(Cc2ccccc2)CCc2c(Cl)cccc21 (stereo not drawn) [Example I-5, 1-benzyl-4-chloro-N-(naphthalene-1-sulfonyl)-2,3-dihydro-1H-indene-1-carboxamide] | – | > 5.52 | +++ (≥350) | > 5.52 | ≥ 150
COc1cccc2c1CC[C@@]2(C)C(=O)NS(=O)(=O)c1cccc2ccccc12 [Example I-6, (1R)-4-methoxy-1-methyl-N-(naphthalene-1-sulfonyl)-2,3-dihydro-1H-indene-1-carboxamide] | – | 5.00 to 5.52 | +++ (≥350) | 5.00 to 5.52 | ≥ 150
CCC1(C(=O)NS(=O)(=O)c2cccc3ccccc23)CCc2c(Cl)cccc21 (stereo not drawn) [Example I-7, 4-chloro-1-ethyl-N-(naphthalene-1-sulfonyl)-2,3-dihydro-1H-indene-1-carboxamide] | – | > 5.52 | +++ (≥350) | > 5.52 | ≥ 150
O=C(NS(=O)(=O)c1cccc2ccccc12)C1CCc2c(Cl)cccc21 (stereo not drawn) [Example I-8, 4-chloro-N-(naphthalene-1-sulfonyl)-2,3-dihydro-1H-indene-1-carboxamide] | – | 5.00 to 5.52 | +++ (≥350) | 5.00 to 5.52 | ≥ 150
CCCCC1(C(=O)NS(=O)(=O)c2cccc3ccccc23)CCc2c(Cl)cccc21 (stereo not drawn) [Example I-30, 1-butyl-4-chloro-N-(naphthalene-1-sulfonyl)-2,3-dihydro-1H-indene-1-carboxamide] | – | – | +++ (≥350) | > 5.52 | –

From patent US20180244611A1, “Modulators of the Cystic Fibrosis Transmembrane Conductance Regulator Protein and Methods of Use” (AbbVie S.à.r.l., priority 2017, published 2018)
